Measured values as given in patent US12398154B2, “Azaquinazoline pan-KRas inhibitors” (Mirati Therapeutics, Inc., priority 2020, dated 2025).

Columns and labels:
KRas G12D = KRas G12D (Homo sapiens, UniProt P01116, G12D); assay: biochemical;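 further: TR-FRET displacement binding assay on KRas, read after a one-hour incubation at room temperature, IC50 fitted from percent-of-control values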
Experimental: (§2) The ability of a compound to bind to KRas was measured using a TR-FRET displacement assay. […] After a 60-minute incubation at room temperature, the reaction was measured using a BMG LABTECH CLARIO star Plus via TR-FRET. […] The POC values were fit to a 4-parameter IC50 equation and the IC50 value reported.

pERK in H727 cells = assay: Inhibition of KRas phosphorylation of ERK (Cisbio HTRF pERK assay); conditions: Homo sapiens, NCI-H727, read-out: Inhibition (HTRF IC50) of KRas-mediated Phosphorylation of ERK, H727
pERK in ASPC1 cells = assay: as above; conditions: Homo sapiens, ASPC1, read-out: Inhibition (HTRF IC50) of KRas-mediated Phosphorylation of ERK, AsPC-1
pERK in HCT116 cells = assay: as above; conditions: Homo sapiens, HCT-116, read-out: Inhibition (HTRF IC50) of KRas-mediated Phosphorylation of ERK, HCT116
Experimental: To harvest cells from flask using 0.05% Trypsin/EDTA solution. Add 10 mL of media to stop trypsinizing. Pipette the cells into a conical bottom 50 mL centrifuge tube and centrifuge 5 min×1000 rpm. • 2. Re-suspend the cell pellet in media, take a cell count, and then adjust the cell density using fresh media. • 3. Seed 6,000 cells into cell culture plate with 50 μL media. […] Incubate cell plate overnight in a 37° C., 5% CO2 incubator. • Compound titrations • 1. Use Tecan to complete the compound addition. Compounds start from 10 uM top, 3-fold dilution, and 10 doses. The final DMSO concentration is 0.8%. Dispensed 0.2 uM Trametinib as Min control. • 2. Incubate cell plate for 3 hrs in the incubator. • Detection with cisbio pERK HTRF kit • 1. […] At the end of the compound treatment, flick-off the media. • 3. Add 35 μL of lysis buffer per well using a Multidrop Combi. Then place on a plate agitator shaking at 300 rpm at 4° C. for 40 mins. • 4. Make up the HTRF antibody buffer. For each assay plate, mix 50 μL of d2-conjugate antibody with 950 μL of detection buffer. Similarly, mix 50 μL of Cryptate antibody with 950 μL of detection buffer. Then mix the two diluted antibodies together. • 5. Dispense 3.4 μL the antibody buffer to wells of an empty assay plate. Seal the plate and centrifuge plate 30 sec×1000 rpm. • 6. At the end of the 4° C. lysis, centrifuge the lysate plates 3 mins×1500 rpm. • 7. Use the Bravo to transfer 13.6 μL of lysate from cell culture plate to assay plate.
Then incubate assay plate for 2 hrs at room temperature. […] At the end of incubation, read plate on the Envision after centrifuging plate 30 sec× • 1000 rpm.

pERK in H358 cells = assay: as above; conditions: Homo sapiens, NCI-H358, read-out: Inhibition (HTRF IC50) of KRas-mediated Phosphorylation of ERK, H358
pERK in MKN1 cells = assay: as above; conditions: Homo sapiens, MKN-1, 3 h, read-out: Inhibition (HTRF IC50) of KRas-mediated Phosphorylation of ERK, MKN1
pERK in H460 cells = assay: as above; conditions: Homo sapiens, NCI-H460, read-out: Inhibition (HTRF IC50) of KRas-mediated Phosphorylation of ERK, H460
KRas G12V = KRas G12V (Homo sapiens, UniProt P01116, G12V); assay: biochemical;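 further: KRas binding measured by TR-FRET displacement at room temperature, IC50 fitted from percent of control values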
Experimental: as §2

pERK in PSN1 cells = assay: Inhibition of KRas phosphorylation of ERK (Cisbio HTRF pERK assay); conditions: Homo sapiens, PSN1, 3 h, read-out: Inhibition (HTRF IC50) of KRas-mediated Phosphorylation of ERK, PSN1
KRas G12R = KRas G12R (Homo sapiens, UniProt P01116, G12R); assay: biochemical;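 further: TR-FRET displacement assay of compound binding to KRas, read after one hour at room temperature, potency from a four-parameter fit of percent-of-control values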
Experimental: as §2

[1] = system: phospho-ERK in NCI-H727 (G12V) cells; assay: Inhibition of KRas-mediated phosphorylation of ERK (in-cell western); type: cell-based; conditions: Homo sapiens, NCI-H727, 3 h, 3 hours compound, phospho-ERK normalized to GAPDH
Method in brief: (§1)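 IC50 came from 4-parameter dose-response fits of phospho-ERK (Thr202/Tyr204)/GAPDH signal, expressed as % DMSO control. Compounds were applied for 3 h at 0.5% DMSO before fixation, methanol permeabilization and antibody imaging by in-cell western.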

[2] = system: phospho-ERK in AsPC-1 (G12D) cells; assay: as above; type: cell-based; conditions: Homo sapiens, ASPC1, 3 h, 3 hours compound, phospho-ERK normalized to GAPDH
Method in brief: as §1

[3] = system: phospho-ERK in NCI-H460 (Q61H) cells; assay: as above; type: cell-based; conditions: Homo sapiens, NCI-H460, 3 h, 3 hours compound, phospho-ERK normalized to GAPDH
Method in brief: as §1

KRas WT = KRas WT (Homo sapiens, UniProt P01116); assay: biochemical;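 further: binding to KRas read as TR-FRET displacement after a one-hour room-temperature incubation, IC50 derived from percent-of-control values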
Experimental: as §2

KRas G12C = KRas G12C (Homo sapiens, UniProt P01116, G12C); assay: biochemical;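 further: binding to KRas assessed by TR-FRET displacement after one hour incubation at room temperature, potency fitted from percent-of-control values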
Experimental: as §2

KRas G12A = KRas G12A (Homo sapiens, UniProt P01116, G12A); assay: biochemical;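 further: binding to KRas measured by TR-FRET displacement after one hour at room temperature, IC50 from a four-parameter fit of percent-of-control values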
Experimental: as §2

KRas G12S = KRas G12S (Homo sapiens, UniProt P01116, G12S); assay: biochemical;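 further: TR-FRET displacement binding to KRas, read after one hour incubation at room temperature, IC50 from four-parameter fit of percent of control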
Sequence of KRas G12S (P01116 1-169 isoform P01116-2 G12S): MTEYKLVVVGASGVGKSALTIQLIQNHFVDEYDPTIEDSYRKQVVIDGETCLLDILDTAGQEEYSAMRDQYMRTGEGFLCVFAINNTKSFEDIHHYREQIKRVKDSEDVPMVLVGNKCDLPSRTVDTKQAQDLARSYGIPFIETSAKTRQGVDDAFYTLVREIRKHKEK
Experimental: as §2

Sequence of KRas G12V (P01116 1-169 isoform P01116-2 G12V): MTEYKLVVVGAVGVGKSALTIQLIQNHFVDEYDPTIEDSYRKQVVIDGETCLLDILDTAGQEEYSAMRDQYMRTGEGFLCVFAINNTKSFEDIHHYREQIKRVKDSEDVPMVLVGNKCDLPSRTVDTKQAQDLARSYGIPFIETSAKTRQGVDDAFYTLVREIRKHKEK
Sequence of KRas G12R (P01116 1-169 isoform P01116-2 G12R): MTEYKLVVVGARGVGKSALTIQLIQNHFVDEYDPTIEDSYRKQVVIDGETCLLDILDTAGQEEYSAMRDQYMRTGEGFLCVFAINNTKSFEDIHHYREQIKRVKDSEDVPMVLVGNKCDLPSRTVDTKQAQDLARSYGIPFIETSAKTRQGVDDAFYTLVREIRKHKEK
Sequence of KRas G12D (P01116 1-169 isoform P01116-2 G12D): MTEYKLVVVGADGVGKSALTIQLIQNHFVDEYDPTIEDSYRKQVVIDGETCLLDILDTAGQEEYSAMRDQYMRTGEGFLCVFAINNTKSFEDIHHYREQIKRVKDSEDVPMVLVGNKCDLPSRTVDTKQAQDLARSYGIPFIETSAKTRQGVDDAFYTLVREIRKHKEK
Sequence of KRas G12A (P01116 1-169 isoform P01116-2 G12A): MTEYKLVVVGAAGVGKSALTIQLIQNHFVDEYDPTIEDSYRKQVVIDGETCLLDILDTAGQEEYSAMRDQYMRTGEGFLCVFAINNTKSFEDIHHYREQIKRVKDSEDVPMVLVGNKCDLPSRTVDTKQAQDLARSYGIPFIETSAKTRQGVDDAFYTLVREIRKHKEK
Sequence of KRas WT (P01116 1-169 isoform P01116-2): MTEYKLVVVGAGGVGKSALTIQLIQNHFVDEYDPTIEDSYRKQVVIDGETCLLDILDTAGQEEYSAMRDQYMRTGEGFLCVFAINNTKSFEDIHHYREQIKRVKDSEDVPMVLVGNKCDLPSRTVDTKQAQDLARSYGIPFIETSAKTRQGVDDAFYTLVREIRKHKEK
Sequence of KRas G12C (P01116 1-169 isoform P01116-2 G12C): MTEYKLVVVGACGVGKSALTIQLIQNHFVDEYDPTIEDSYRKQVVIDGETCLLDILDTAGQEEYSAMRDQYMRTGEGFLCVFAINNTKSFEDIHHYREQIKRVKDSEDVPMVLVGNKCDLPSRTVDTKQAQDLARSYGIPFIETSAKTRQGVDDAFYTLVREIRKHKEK

SMILES | IC50 (KRas G12D) [nM] | IC50 (pERK in H727 cells) [nM] | IC50 (pERK in ASPC1 cells) [nM] | IC50 (pERK in HCT116 cells) [nM] | IC50 (pERK in H358 cells) [nM] | IC50 (pERK in MKN1 cells) [nM] | IC50 (pERK in H460 cells) [nM] | IC50 (KRas G12V) [nM] | IC50 (pERK in PSN1 cells) [nM] | IC50 (KRas G12R) [nM] | IC50 (KRas WT) [nM] | IC50 (KRas G12C) [nM] | IC50 (KRas G12A) [nM] | IC50 (KRas G12S) [nM] | IC50 [1] [nM] | IC50 [2] [nM] | IC50 [3] [nM]
CCc1c(F)ccc2cc(O)cc(-c3ncc4c(N5CC(c6ccncc6)C5)nc(OC[C@@]56CCCN5C[C@H](F)C6)nc4c3F)c12 [Example 172, 5-ethyl-6-fluoro-4-(8-fluoro-2-(((2R,7aS)-2-fluorohexahydro-1H-pyrrolizin-7a-yl)methoxy)-4-(3-(pyridin-4-yl)azetidin-1-yl)pyrido[4,3-d]pyrimidin-7-yl)naphthalen-2-ol] | 9 | 26 | 96 | 170 | 6 | 41 | 32 | ≤ 2 | ≥ 10000 | ≤ 2 |  |  |  |  | 192 | 481 | 79
CCc1c(F)ccc2cc(O)cc(-c3ncc4c(N5CCCC(C#N)CC5)nc(OC[C@@]56CCCN5C[C@H](F)C6)nc4c3F)c12 (stereo partly drawn) [Example 173] | 6 | 263 | 56 | 454 | 95 | 42 | 176 | 4 | 5540 | 6 |  |  |  |  | 304 | 180 | 145
O=S1(=O)NCC2(CCCN(c3nc(OC[C@@]45CCCN4C[C@H](F)C5)nc4c(F)c(-c5cc(O)cc6ccc(F)c(Br)c56)ncc34)C2)N1 (stereo partly drawn) [Example 411, 7-(7-(8-bromo-7-fluoro-3-hydroxynaphthalen-1-yl)-8-fluoro-2-(((2R,7aS)-2-fluorohexahydro-1H-pyrrolizin-7a-yl)methoxy)pyrido[4,3-d]pyrimidin-4-yl)-2-thia-1,3,7-triazaspiro[4.5]decane 2,2-dioxide] | ≤ 2 | 83 | 63 | 92 | 9 | 40 | 48 | ≤ 2 | 146 | ≤ 2 |  |  |  |  |  |  | 
CC1(O)COCCN(c2nc(OC[C@@]34CCCN3C[C@H](F)C4)nc3c(F)c(-c4cc(O)cc5ccc(F)c(Cl)c45)ncc23)C1 (stereo partly drawn) [Example 419, 4-(7-(8-chloro-7-fluoro-3-hydroxynaphthalen-1-yl)-8-fluoro-2-(((2R,7aS)-2-fluorohexahydro-1H-pyrrolizin-7a-yl)methoxy)pyrido[4,3-d]pyrimidin-4-yl)-6-methyl-1,4-oxazepan-6-ol] | 3 | 154 | 71 | 319 | 58 | 14 | 182 | 3 | 3480 | 8 |  |  |  |  |  |  | 
CCc1c(F)ccc2cc(O)cc(-c3ncc4c(N5CCCC6(CCSC6)C5)nc(OC[C@@]56CCCN5C[C@H](F)C6)nc4c3F)c12 (stereo partly drawn) [Example 476, 5-ethyl-6-fluoro-4-(8-fluoro-2-(((2R,7aS)-2-fluorotetrahydro-1H-pyrrolizin-7a(5H)-yl)methoxy)-4-(2-thia-7-azaspiro[4.5]decan-7-yl)pyrido[4,3-d]pyrimidin-7-yl)naphthalen-2-ol] | ≤ 2 | 148 | 36 | 275 | 35 | 14 | 99 | ≤ 2 | 3590 | 4 |  |  |  |  |  |  | 

Now from value to compound, other results behind:

IC50 (KRas G12D) [nM] | IC50 (pERK in H727 cells) [nM] | IC50 (pERK in ASPC1 cells) [nM] | IC50 (pERK in HCT116 cells) [nM] | IC50 (pERK in H358 cells) [nM] | IC50 (pERK in MKN1 cells) [nM] | IC50 (pERK in H460 cells) [nM] | IC50 (KRas G12V) [nM] | IC50 (pERK in PSN1 cells) [nM] | IC50 (KRas G12R) [nM] | IC50 (KRas WT) [nM] | IC50 (KRas G12C) [nM] | IC50 (KRas G12A) [nM] | IC50 (KRas G12S) [nM] | SMILES | IC50 [1] [nM] | IC50 [2] [nM] | IC50 [3] [nM]
≤ 2 | 113 | 99 | 133 | 57 | 11 | 166 | ≤ 2 | 7390 | ≤ 2 |  |  |  |  | CCc1c(F)ccc2cc(O)cc(-c3ncc4c(N5CCCC(O)CC5)nc(OC[C@@]56CCCN5C[C@H](F)C6)nc4c3F)c12 (stereo in doubt) [Example 346, 1-(7-(8-ethyl-7-fluoro-3-hydroxynaphthalen-1-yl)-8-fluoro-2-(((2R,7aS)-2-fluorohexahydro-1H-pyrrolizin-7a-yl)methoxy)pyrido[4,3-d]pyrimidin-4-yl)azepan-4-ol] |  |  | 
≤ 2 | 45 | 49 | 56 | 164 | 17 | 61 | ≤ 2 | 5150 | ≤ 2 | ≤ 2 | ≤ 2 | ≤ 2 | ≤ 2 | CCc1c(F)ccc2cc(O)cc(-c3ncc4c(N5CCCCCCC5)nc(OC[C@@]56CCCN5C[C@H](F)C6)nc4c3F)c12 [Example 325, 4-(4-(azocan-1-yl)-8-fluoro-2-(((2R,7aS)-2-fluorohexahydro-1H-pyrrolizin-7a-yl)methoxy)pyrido[4,3-d]pyrimidin-7-yl)-5-ethyl-6-fluoronaphthalen-2-ol] |  |  | 
5 | 62 | 49 | 140 | 19 | 2 | 54 | ≤ 2 | 9190 | ≤ 2 |  |  |  |  | CCc1c(F)ccc2cc(O)cc(-c3ncc4c(N5C[C@@H]6C[C@H](C5)[C@H](O)C6)nc(OCC5(CN(C)C)CC5)nc4c3F)c12 [Example 360, (1R,5R,6R)-3-(2-((1-((dimethylamino)methyl)cyclopropyl)methoxy)-7-(8-ethyl-7-fluoro-3-hydroxynaphthalen-1-yl)-8-fluoropyrido[4,3-d]pyrimidin-4-yl)-3-azabicyclo[3,2,1]octan-6-ol] |  |  | 
3 | 185 | 60 | 321 | 61 | 11 | 108 | 3 | 5530 | 9 |  |  |  |  | CCc1c(F)ccc2cc(O)cc(-c3ncc4c(N5CCC[C@@](C)(O)C5)nc(OCC(C)(C)CN(C)C)nc4c3F)c12 [Example 366, (R)-1-(2-(3-(dimethylamino)-2,2-dimethylpropoxy)-7-(8-ethyl-7-fluoro-3-hydroxynaphthalen-1-yl)-8-fluoropyrido[4,3-d]pyrimidin-4-yl)-3-methylpiperidin-3-ol] |  |  | 
≤ 2 | 74 | 61 | 563 | 22 | 12 | 143 | ≤ 2 | 3990 | ≤ 2 |  |  |  |  | C#Cc1c(F)ccc2cc(O)cc(-c3ncc4c(N5CCOCC(CO)C5)nc(OC[C@@]56CCCN5C[C@H](F)C6)nc4c3F)c12 (stereo partly drawn) [Example 391, 5-ethynyl-6-fluoro-4-(8-fluoro-2-(((2R,7aS)-2-fluorohexahydro-1H-pyrrolizin-7a-yl)methoxy)-4-(6-(hydroxymethyl)-1,4-oxazepan-4-yl)pyrido[4,3-d]pyrimidin-7-yl)naphthalen-2-ol] |  |  | 
6 | 406 | 89 | 1070 | 231 | 80 | 414 | 16 | 9300 | 18 |  |  |  |  | CCc1cccc2cc(O)c(F)c(-c3ncc4c(N5CCC[C@@](C)(O)C5)nc(OC[C@@]56CCCN5C[C@H](F)C6)nc4c3F)c12 [Example 472, (3R)-1-(7-(8-ethyl-2-fluoro-3-hydroxynaphthalen-1-yl)-8-fluoro-2-(((2R,7aS)-2-fluorohexahydro-1H-pyrrolizin-7a-yl)methoxy)pyrido[4,3-d]pyrimidin-4-yl)-3-methylpiperidin-3-ol] |  |  | 
